# Source: patent US10925856B2, “Methods and compositions involving bucindolol for the treatment of atrial fibrillation” (priority 2018, dated 2021)
# Like-named read-outs stand apart in the source and are kept apart here.
# [1] = CYP2D6 Extensive/Ultra Metabolizer
# [2] = Drug Titration Period (first 42 days)
# [3] = treatment-emergent AE, total follow-up
smiles,measurement,setting,value
"CC(C)(Cc1c[nH]c2ccccc12)NCC(O)COc1ccccc1C#N (stereo not shown) [bucindolol, 2-(3-(1-(1H-indol-3-yl)-2-methylpropan-2-ylamino)-2-hydroxypropoxy)benzonitrile]","HEADACHE, % of patients",[1],(4.8%)
same,"HEADACHE, number of patients",[1],5
same,"HYPOTENSION, % of patients",[1],(9.5%)
same,"HYPOTENSION, number of patients",[1],10
same,"IMMUNE SYSTEM DISORDERS, % of patients",[1],(1.0%)
same,"IMMUNE SYSTEM DISORDERS, number of patients",[1],1
same,"INFECTIONS AND INFESTATIONS, % of patients",[1],(28.6%)
same,"INFECTIONS AND INFESTATIONS, number of patients",[1],30
same,"INFLUENZA, % of patients",[1],(2.9%)
same,"INFLUENZA, number of patients",[1],3
same,"HEADACHE, % of patients",CYP2D6 Poor Metabolizer,(0.0%)
same,"HEADACHE, number of patients",CYP2D6 Poor Metabolizer,0
same,"INFECTIONS AND INFESTATIONS, % of patients",CYP2D6 Poor Metabolizer,(33.3%)
same,"INFECTIONS AND INFESTATIONS, number of patients",CYP2D6 Poor Metabolizer,4
same,"INFLUENZA, % of patients",CYP2D6 Poor Metabolizer,(8.3%)
same,"INFLUENZA, number of patients",CYP2D6 Poor Metabolizer,1
same,"UPPER RESPIRATORY TRACT INFECTION, % of patients",CYP2D6 Poor Metabolizer,(8.3%)
same,"UPPER RESPIRATORY TRACT INFECTION, number of patients",CYP2D6 Poor Metabolizer,1
same,"AC mortality or CV hosp or treatment disc. due to AE, patients N (%)",[2],5 (4%)
same,"All-cause mortality, patients N (%)",[2],0 (0%)
same,AEs leading to study withdrawal (excluding death),"GENETIC-AF, all randomized patients",1.5%
same,"Adverse event leading to death, patients N (%)",Total Study On-Drug Period,2.3%
same,"Adverse events leading to study withdrawal (excluding death), patients N (%)",Total Study On-Drug Period,2 (1.5%)
same,"Adverse event leading to death, patients N (%)","Total Study On-Drug Period, listed as Bucindolol",3 (2.3%)
same,AE SOC frequency: Cardiac Disorders,"human, in vivo",25.4%
same,AE SOC frequency: Eye Disorders,"human, in vivo",6.0%
same,AE SOC frequency: Gastrointestinal Disorders,"human, in vivo",20.9%
same,AE SOC frequency: Hepatobiliary Disorders,"human, in vivo",3.7%
same,AE SOC frequency: Infections and Infestations,"human, in vivo",28.4%
same,AE SOC frequency: Investigators,"human, in vivo",12.7%
same,AE SOC frequency: Metabolism and Nutrition Disorders,"human, in vivo",14.2%
same,AE SOC frequency: Musculoskeletal and Connective Tissue Disorders,"human, in vivo",25.4%
same,AE SOC frequency: Neoplasms Benign Malignant and Unspecified,"human, in vivo",2.2%
same,AE SOC frequency: Renal and Urinary Disorders,"human, in vivo",10.4%
same,"AE SOC frequency: Respiratory, Thoracic and Mediastinal Disorders","human, in vivo",15.7%
same,AE frequency: arthralgia,"human, in vivo",5.2%
same,AE frequency: cardiac failure,"human, in vivo",5.2%
same,AE frequency: chronic kidney disease,"human, in vivo",3.0%
same,AE frequency: constipation,"human, in vivo",6.0%
same,AE frequency: epistaxis,"human, in vivo",3.0%
same,AE frequency: hematuria,"human, in vivo",3.0%
same,AE frequency: hypomagnesaemia,"human, in vivo",3.0%
same,AE frequency: hypotension,"human, in vivo",9.7%
same,AE frequency: pneumonia,"human, in vivo",3.0%
same,AE frequency: upper respiratory tract infection,"human, in vivo",6.0%
same,"AE of symptomatic bradycardia or bradycardia leading to dose reduction or discontinuation of study drug, patients N (%)","human, in vivo",4 (3.0%)
same,AEs leading to permanent study drug discontinuation,"human, in vivo",8.2%
same,AEs: Bradycardia,"human, in vivo",3.7%
same,AEs: Stroke (99% on OACs),"human, in vivo",0.0%
same,"Adverse event possible/probably related to study drug, patients N (%)","human, in vivo",32 (23.9%)
same,"Adverse events leading to permanent study drug discontinuation, patients N (%)","human, in vivo",11 (8.2%)
same,"Adverse events related to neoplasm, patients N (%)","human, in vivo",3 (2.2%)
same,"Any bradycardia event, % of patients","human, in vivo",(4%)
same,"Any bradycardia event, number of patients","human, in vivo",5
same,"Any bradycardia, % of patients","human, in vivo",(4%)
same,"Any bradycardia, number of patients","human, in vivo",5
same,"Any serious adverse event, % of patients","human, in vivo",(25%)
same,"Any serious adverse event, number of patients","human, in vivo",33
same,"Asymptomatic bradycardia event, % of patients","human, in vivo",(0%)
same,"Asymptomatic bradycardia event, number of patients","human, in vivo",0
same,"Asymptomatic bradycardia, % of patients","human, in vivo",(0%)
same,"Asymptomatic bradycardia, number of patients","human, in vivo",0
same,"Bradycardia event leading to study drug discontinuation, % of patients","human, in vivo",(1%)
same,"Bradycardia event leading to study drug discontinuation, number of patients","human, in vivo",1
same,"Bradycardia event leading to study drug dose interruption, % of patients","human, in vivo",(0%)
same,"Bradycardia event leading to study drug dose interruption, number of patients","human, in vivo",0
same,"Bradycardia event leading to study drug dose reduction, % of patients","human, in vivo",(2%)
same,"Bradycardia event leading to study drug dose reduction, number of patients","human, in vivo",3
same,"CAD, % of patients","human, in vivo",(6%)
same,"CAD, number of patients","human, in vivo",8
same,Cardiac AE rate (heart failure or bradycardia events),"human, in vivo",25%
same,"Cardiovascular serious adverse event, % of patients","human, in vivo",(9%)
same,"Cardiovascular serious adverse event, number of patients","human, in vivo",12
same,"Catheterization, % of patients","human, in vivo",(4%)
same,"Catheterization, number of patients","human, in vivo",5
same,"Heart block (Mobitz I/II, 2:1, or 3rd degree), % of patients","human, in vivo",(0%)
same,"Heart block (Mobitz I/II, 2:1, or 3rd degree), number of patients","human, in vivo",0
same,"ICD Implantation, % of patients","human, in vivo",(4%)
same,"ICD Implantation, number of patients","human, in vivo",5
same,"Incidence of Cr > 3.0, % of patients","human, in vivo",(1%)
same,"Incidence of Cr > 3.0, number of patients","human, in vivo",1
same,"Incidence of bilirubin > 2.0, % of patients","human, in vivo",(1%)
same,"Incidence of bilirubin > 2.0, number of patients","human, in vivo",1
same,"Non-CNS Embolism, % of patients","human, in vivo",(0%)
same,"Non-CNS Embolism, number of patients","human, in vivo",0
same,"Pacemaker Implantation, % of patients","human, in vivo",(1%)
same,"Pacemaker Implantation, number of patients","human, in vivo",1
same,"REPRODUCTIVE SYSTEM AND BREAST DISORDERS, % of patients","human, in vivo",(0.0%)
same,"REPRODUCTIVE SYSTEM AND BREAST DISORDERS, number of patients","human, in vivo",0
same,SAE SOC frequency: Infections and Infestations,"human, in vivo",4.5%
same,SAE SOC frequency: Renal and Urinary Disorders,"human, in vivo",3.0%
same,"SAE SOC frequency: Respiratory, Thoracic and Mediastinal Disorders","human, in vivo",5.2%
same,SAE frequency: Cardiac Failure,"human, in vivo",3.0%
same,SAE frequency: Cardiac Failure Congestive,"human, in vivo",2.2%
same,SAEs: Any cardiovascular event,"human, in vivo",9.0%
same,"SINUS BRADYCARDIA, % of patients","human, in vivo",(0.0%)
same,"SINUS BRADYCARDIA, number of patients","human, in vivo",0
same,"Stroke, % of patients","human, in vivo",(0%)
same,"Stroke, number of patients","human, in vivo",0
same,"Symptomatic bradycardia event, % of patients","human, in vivo",(4%)
same,"Symptomatic bradycardia event, number of patients","human, in vivo",5
same,"Symptomatic bradycardia, % of patients","human, in vivo",(4%)
same,"Symptomatic bradycardia, number of patients","human, in vivo",5
same,"TIA, % of patients","human, in vivo",(0%)
same,"TIA, number of patients","human, in vivo",0
same,"UPPER RESPIRATORY TRACT INFECTION, % of patients","human, in vivo",(5.7%)
same,"UPPER RESPIRATORY TRACT INFECTION, number of patients","human, in vivo",6
same,"All-cause hospitalization, patients N (%)","human, in vivo, 42 days",7 (5%)
same,"Any serious adverse event, patients N (%)","human, in vivo, 42 days",8 (6%)
same,"Asymptomatic bradycardia, patients N (%)","human, in vivo, 42 days",0 (0%)
same,"Cardiovascular hospitalization, patients N (%)","human, in vivo, 42 days",5 (4%)
same,"Heart failure hospitalization, patients N (%)","human, in vivo, 42 days",1 (1%)
same,"Symptomatic bradycardia, patients N (%)","human, in vivo, 42 days",2 (1%)
same,"Treatment-related cardiovascular serious adverse event, patients N (%)","human, in vivo, 42 days",0 (0%)
same,"Treatment-related serious adverse event, patients N (%)","human, in vivo, 42 days",1 (1%)
same,"Ablation, % of patients",in vivo,(16%)
same,"Ablation, number of patients",in vivo,21
same,"Additional ECV After Successful SR, % of patients",in vivo,(28%)
same,"Additional ECV After Successful SR, number of patients",in vivo,37
same,"Anti-Arrhythmic Therapy, % of patients",in vivo,(34%)
same,"Anti-Arrhythmic Therapy, number of patients",in vivo,46
same,"Appropriate Firing of on ICD, % of patients",in vivo,(0%)
same,"Appropriate Firing of on ICD, number of patients",in vivo,0
same,Bradycardia AEs,in vivo,none
same,"Rate Control Therapy, % of patients",in vivo,(15%)
same,"Rate Control Therapy, number of patients",in vivo,20
same,"HEADACHE, % of patients",[3],(4.5%)
same,"HEADACHE, number of patients",[3],6
same,"INFECTIONS AND INFESTATIONS, % of patients",[3],(26.9%)
same,"INFECTIONS AND INFESTATIONS, number of patients",[3],36
same,"INFLUENZA, % of patients",[3],(3.0%)
same,"INFLUENZA, number of patients",[3],4
same,"UPPER RESPIRATORY TRACT INFECTION, % of patients",[3],(5.2%)
same,"UPPER RESPIRATORY TRACT INFECTION, number of patients",[3],7
same,"INFECTIONS AND INFESTATIONS, % of patients",treatment-emergent serious AE,(4.5%)
same,"INFECTIONS AND INFESTATIONS, number of patients",treatment-emergent serious AE,6
